Patent publication US7030265B2, “Retinol derivatives, the method of preparations and the uses thereof” (Chebigen, Inc., priority 2001, dated 2006)

Legend:
Assay type in all cases: cell-based
retinoid X receptor β = target: T1, retinoid X receptor β (Homo sapiens, UniProt P28702); assay: RXR activity test, DR1-tk-CAT reporter in HaCAT cells; conditions: 1 μM, CAT ELISA, FIG. 2 (B)
T1 construct: expressed in transfected cells; host or cells: HaCAT
T1 sequence (P28702 1-533): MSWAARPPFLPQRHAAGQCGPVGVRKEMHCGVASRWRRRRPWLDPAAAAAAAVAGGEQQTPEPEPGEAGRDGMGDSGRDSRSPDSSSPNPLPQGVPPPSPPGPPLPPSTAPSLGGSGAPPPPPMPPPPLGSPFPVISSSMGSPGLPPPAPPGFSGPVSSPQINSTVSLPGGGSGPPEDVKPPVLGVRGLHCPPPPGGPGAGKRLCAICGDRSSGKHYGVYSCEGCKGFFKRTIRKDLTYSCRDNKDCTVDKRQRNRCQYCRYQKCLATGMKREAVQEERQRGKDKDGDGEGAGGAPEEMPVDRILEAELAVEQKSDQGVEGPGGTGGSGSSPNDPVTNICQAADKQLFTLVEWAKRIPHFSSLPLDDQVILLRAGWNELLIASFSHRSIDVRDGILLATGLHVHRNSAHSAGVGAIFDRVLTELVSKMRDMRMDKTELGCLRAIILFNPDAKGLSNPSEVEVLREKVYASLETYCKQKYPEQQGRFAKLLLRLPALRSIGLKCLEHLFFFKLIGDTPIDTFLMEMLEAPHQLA
Source text: (§1) To analyze the effects of retinol-(N-formyl-aspartam) on the activity of retinoic acid receptor, skin cancer (HaCAT) cell lines were utilized to measure the activity of retinoic acid receptor/retinoid X receptor.
(§2) Recombinant DNA, DR5-tk-CAT or DR1-tk-CAT consisting of DR1 or DR5, effectors of retinoic acid receptor/retinoid X receptor, thymine kinase promoter, and CAT(chloramphenicol acetyl transferase) were mixed with the plasmid DNA expressing retinoic acid receptor α, β, ? or retinoid X receptor α, β, ? to cotransfect skin cancer (HaCAT) cell line with lipofectamine (GibcoBRL). The cotransfected cell lines were cultured for 1 day on DMEM/10% FBS media, each retinol derivatives (1 μM) were added and cultured for one more day, 5% CO2, 37° C. The cells were washed with phosphate-buffered saline (PBS), and the proteins were isolated from each cells, and the activity of β-galactosidase and protein contents were measured to determine transfection efficacy, the transcription level of RAR or RXR receptor were measured with CAT ELISA (Roche Molecular Biochemical, Mannheim, Germany).

retinoic acid receptor β = target: T2, retinoic acid receptor β (Homo sapiens, UniProt P10826); assay: RAR activity test, DR5-tk-CAT reporter in HaCAT cells; conditions: 1 μM, CAT ELISA, FIG. 2 (A)
T2 construct: expressed in transfected cells; b135 says HaCAT
T2 sequence (P10826 1-455): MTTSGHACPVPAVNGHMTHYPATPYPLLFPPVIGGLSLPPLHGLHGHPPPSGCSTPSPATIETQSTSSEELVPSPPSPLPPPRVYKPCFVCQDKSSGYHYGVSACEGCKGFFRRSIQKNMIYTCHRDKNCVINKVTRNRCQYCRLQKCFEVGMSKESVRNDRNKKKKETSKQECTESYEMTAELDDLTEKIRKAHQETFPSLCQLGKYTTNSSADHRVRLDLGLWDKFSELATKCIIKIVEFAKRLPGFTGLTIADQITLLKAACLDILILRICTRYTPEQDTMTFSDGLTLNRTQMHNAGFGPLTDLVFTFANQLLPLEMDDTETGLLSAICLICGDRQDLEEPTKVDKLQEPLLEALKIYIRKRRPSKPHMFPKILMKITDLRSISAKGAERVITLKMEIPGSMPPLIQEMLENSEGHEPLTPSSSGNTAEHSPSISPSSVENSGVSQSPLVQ
Source text: as §1, §2
(§3) To determine the effect of retinol-(N-formyl-aspartam) on retinoic acid receptors, each retinoic acid receptor (α, β, or ? ) expression vector and activity measuring DR5-tk-CAT plasmid were introduced with liposome. After treating cells with retinol-(N-formyl-aspartam), the cell extracts were isolated. The expression level of CAT were measured with CAT ELISA to determine the effect of retinol-(N-formyl-aspartam) on the activity of retinoic acid receptors.

retinoic acid receptor γ = target: T3, retinoic acid receptor γ (Homo sapiens, UniProt P13631); assay: as above; conditions: 1 μM, CAT ELISA, FIG. 2 (A)
T3 construct: expressed in transfected cells; b135 says HaCAT
T3 sequence (P13631 1-454): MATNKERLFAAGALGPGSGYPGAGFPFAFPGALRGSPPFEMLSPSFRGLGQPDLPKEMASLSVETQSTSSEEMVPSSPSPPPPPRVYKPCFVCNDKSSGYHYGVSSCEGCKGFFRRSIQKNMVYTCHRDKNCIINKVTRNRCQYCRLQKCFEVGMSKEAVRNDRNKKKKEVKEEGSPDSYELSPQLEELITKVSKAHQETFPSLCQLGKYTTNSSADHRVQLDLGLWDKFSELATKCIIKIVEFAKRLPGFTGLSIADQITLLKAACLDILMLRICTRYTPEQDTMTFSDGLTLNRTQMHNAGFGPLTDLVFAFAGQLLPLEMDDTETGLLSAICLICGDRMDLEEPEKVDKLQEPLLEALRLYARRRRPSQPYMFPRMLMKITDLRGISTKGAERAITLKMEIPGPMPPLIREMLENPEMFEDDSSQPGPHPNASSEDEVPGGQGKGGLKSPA
Source text: as §1, §2, §3

retinoic acid receptor α = target: T4, retinoic acid receptor α (Homo sapiens, UniProt P10276); assay: as above; conditions: 1 μM, CAT ELISA, FIG. 2 (A)
T4 construct: expressed in transfected cells; b135 says HaCAT
T4 sequence (P10276 1-462): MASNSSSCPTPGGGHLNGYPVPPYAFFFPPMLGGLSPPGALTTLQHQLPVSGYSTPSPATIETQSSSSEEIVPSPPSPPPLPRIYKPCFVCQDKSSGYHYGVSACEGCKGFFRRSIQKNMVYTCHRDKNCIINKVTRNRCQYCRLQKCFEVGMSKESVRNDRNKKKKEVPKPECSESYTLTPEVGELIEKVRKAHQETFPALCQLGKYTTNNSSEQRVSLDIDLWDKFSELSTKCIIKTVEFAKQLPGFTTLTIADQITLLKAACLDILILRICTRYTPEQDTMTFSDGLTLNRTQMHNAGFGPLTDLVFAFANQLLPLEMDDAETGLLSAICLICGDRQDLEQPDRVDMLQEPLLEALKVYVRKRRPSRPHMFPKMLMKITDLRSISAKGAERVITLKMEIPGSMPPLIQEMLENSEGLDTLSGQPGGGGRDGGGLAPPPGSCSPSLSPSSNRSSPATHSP
Source text: as §1, §2, §3

COC(=O)C(Cc1ccccc1)NC(=O)[C@H](CC(=O)OC/C=C(C)/C=C/C=C(C)/C=C/C1=C(C)CCCC1(C)C)NC=O (stereo partly drawn) [retinol-(N-formyl-aspartam), (2E,4E,6E,8E)-3,7-dimethyl-9-(2,6,6-trimethyl-1-cyclohexenyl)-2,4,6,8-nonatetraenyl(3S)-4-[(1-benzyl-2-methoxy-2-oxoethyl)amino]-3-formylamino-4-oxobutanoate]
activation of retinoid X receptor β (retinoid X receptor β): no activation | activation of retinoic acid receptor β (retinoic acid receptor β): weak activation | activation of retinoic acid receptor γ (retinoic acid receptor γ): weak activation | activation of retinoic acid receptor α (retinoic acid receptor α): high activation
